This is an account of results in ChEMBL document CHEMBL5442663, “ASAP - Solubility” (2024).

In brackets after ≈: the same amount, converted by molar mass.

The nature of the data set: Kinetic solubility of compound by measuring concentration at pH 7.4 in saturated PBS buffer by UV LCMS/MS using calibration curves. The assay has been performed by Enamine biological services, Bienta Ltd.The protocol is publicly available: dx.doi.org/10.17504/protocols.io.j8nlk8y41l5r/v1. Type of data set: physicochemical. Particulars: PBS buffer.
A word on the solubility (kinetic): it is solubility judged after dilution from a stock solution rather than from solid. The compound `CC(C)[C@@H](Nc1ncnc2[nH]c(C(=O)N[C@H]3CCN(C)C3)cc12)c1ccc2c(c1)S(=O)(=O)CCC2` gave a kinetic solubility of 392 µM (≈ 195 µg/mL). Consider `CNC(=O)c1cccc(-c2cc3c(N[C@@H](c4ccc5c(c4)S(=O)(=O)CCC5)C(C)C)ncnc3[nH]2)c1`, for which the solubility (kinetic) came to 15 µM (≈ 7.55 µg/mL). Compound `COc1ccc([C@H](Cc2nnn[nH]2)NC(=O)c2ncnc3[nH]ccc23)cc1` had a solubility (kinetic) of 367 µM (≈ 134 µg/mL). In turn, `CC(C)(C)[C@H](Nc1ncnc2[nH]c(-c3cnn(CC(N)=O)c3)cc12)c1ccc2c(c1)OCCO2` registered a kinetic solubility of 89 µM (≈ 41.1 µg/mL). Take `C[C@H](C(=O)O)[C@@H](NC(=O)c1ncnc2[nH]ccc12)c1ccc(Br)cc1`: the solubility (kinetic) worked out at 358 µM (≈ 144 µg/mL). For the compound `CC(C)[C@H](Nc1ncnc2[nH]c(-c3cnn(C)c3C#N)cc12)c1ccc2c(c1)NC(=O)CO2`, the solubility (kinetic) stood at 26 µM (≈ 11.5 µg/mL).

Take `CNC(=O)c1cccc(-c2cc3c(N[C@H](c4ccc5c(c4)S(=O)(=O)CCC5)C(C)C)ncnc3[nH]2)c1`: the kinetic solubility stood at 13 µM (≈ 6.55 µg/mL). In the case of `CCNC(=O)c1cc2c(N[C@H](c3ccc4c(c3)OCCO4)C(C)C)ncnc2[nH]1` it was 263 µM (≈ 104 µg/mL); in that of `CNC(=O)c1cc2c(N[C@H](c3ccc4c(c3)S(=O)(=O)CCC4)C(C)C)ncnc2[nH]1`, 374 µM (≈ 160 µg/mL). For `CC(C)[C@H](Nc1ncnc2[nH]c(-c3cnn(CC(=O)N(C)C)c3)cc12)c1ccc2c(c1)OCCO2`, the solubility (kinetic) is 19 µM (≈ 9.04 µg/mL). In the case of `CC(C)[C@H](Nc1ncnc2[nH]c(C(=O)N[C@H]3CCN(C)C3)cc12)c1ccc2c(c1)S(=O)(=O)CCC2` it was 396 µM (≈ 197 µg/mL); in that of `CC(C)[C@H](Nc1ncnc2[nH]c(-c3cnn(CC(=O)N(C)C)c3)cc12)c1ccc2c(c1)S(=O)(=O)CCC2`, 361 µM (≈ 188 µg/mL).
